From PubChem BioAssay AID248 (DTP/NCI, 2004)
“And” between values parts separate entries of the source, which are not always exact repeats. Identical values can stand only once. Toxic doses and inconclusive results are not listed. No stated cut-off is given here; in the data, active means T/C of 150% or more; inactive means T/C below 125%.

Tested on: L1210 leukemia ip in BDF1 mice, survival T/C
Assay: NCI In Vivo Anticancer Drug Screen. Data for tumor model L1210 Leukemia (intraperitoneal) in B6D2F1 (BDF1) mice
Settings: endpoint: mean survival time, higher = longer survival
Summary of the method: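 Transplanted-tumor mice were given test agent; controls received vehicle only. Survival readings from the two groups were divided (treated over control).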

[1] = dose: 100.0 mg/kg/injection, schedule: Q01DX001 (ip), vehicle: saline
[2] = dose: 200.0 mg/kg/injection, schedule: Q01DX001 (ip), vehicle: saline
[3] = dose: 400.0 mg/kg/injection, schedule: Q01DX001 (ip), vehicle: saline
[4] = dose: 100.0 mg/kg/injection, schedule: Q01DX009 (ip), vehicle: Klucel (hydroxypropylcellulose) (HPC)

Measured: T/C

COc1ccc(C=O)cc1OCc1ccccc1
inactive: dose: 100.0 mg/kg/injection, schedule: Q01DX009 (ip), vehicle: water 96 % of control | dose: 100.0 mg/kg/injection, schedule: Q04DX003 (ip), vehicle: water 100 % of control | dose: 200.0 mg/kg/injection, schedule: Q01DX009 (ip), vehicle: water 96 % of control | dose: 200.0 mg/kg/injection, schedule: Q04DX003 (ip), vehicle: water 96 % of control | dose: 400.0 mg/kg/injection, schedule: Q01DX009 (ip), vehicle: water 102 % of control | dose: 400.0 mg/kg/injection, schedule: Q04DX003 (ip), vehicle: water 100 % of control

C=CC(=O)N1CCN(C(=O)C=C)CC1 (tested in a mixture with another compound)
inactive: dose: 0.04 mg/kg/injection, schedule: Q04DX002 (ip), vehicle: saline 101 % of control | dose: 0.09 mg/kg/injection, schedule: Q04DX002 (ip), vehicle: saline 97 % of control | dose: 0.18 mg/kg/injection, schedule: Q04DX002 (ip), vehicle: saline 97 % of control and 100 % of control | dose: 0.75 mg/kg/injection, schedule: Q04DX002 (ip), vehicle: saline 109 % of control | dose: 1.5 mg/kg/injection, schedule: Q04DX002 (ip), vehicle: saline 103 % of control | dose: 3.12 mg/kg/injection, schedule: Q04DX002 (ip), vehicle: saline 106 % of control | dose: 6.25 mg/kg/injection, schedule: Q04DX002 (ip), vehicle: saline + alcohol 97 % of control | dose: 6.25 mg/kg/injection, schedule: Q04DX002 (ip), vehicle: saline 103 % of control | dose: 12.5 mg/kg/injection, schedule: Q04DX002 (ip), vehicle: saline + alcohol 101 % of control | dose: 12.5 mg/kg/injection, schedule: Q04DX002 (ip), vehicle: saline with Tween-80 94 % of control | dose: 12.5 mg/kg/injection, schedule: Q04DX002 (ip), vehicle: saline 103 % of control | dose: 25.0 mg/kg/injection, schedule: Q04DX002 (ip), vehicle: saline + alcohol 104 % of control and 89 % of control | dose: 25.0 mg/kg/injection, schedule: Q04DX002 (ip), vehicle: saline with Tween-80 109 % of control | dose: 50.0 mg/kg/injection, schedule: Q04DX002 (ip), vehicle: saline + alcohol 92 % of control | dose: 50.0 mg/kg/injection, schedule: Q04DX002 (ip), vehicle: saline with Tween-80 91 % of control | dose: 50.0 mg/kg/injection, schedule: Q04DX002 (ip), vehicle: saline 96 % of control and 105 % of control | dose: 100.0 mg/kg/injection, schedule: Q04DX002 (ip), vehicle: saline + alcohol 100 % of control | dose: 100.0 mg/kg/injection, schedule: Q04DX002 (ip), vehicle: saline 100 % of control and 97 % of control and 105 % of control | dose: 200.0 mg/kg/injection, schedule: Q04DX002 (ip), vehicle: saline 97 % of control and 90 % of control | dose: 400.0 mg/kg/injection, schedule: Q04DX002 (ip), vehicle: saline 90 % of control

CCOC(=O)C1SCSCC1=O (configuration not stated)
inactive: dose: 100.0 mg/kg/injection, schedule: Q04DX003 (ip), vehicle: saline with Tween-80 102 % of control | dose: 200.0 mg/kg/injection, schedule: Q04DX003 (ip), vehicle: saline with Tween-80 98 % of control | dose: 400.0 mg/kg/injection, schedule: Q04DX003 (ip), vehicle: saline with Tween-80 98 % of control

CCCCC(=O)N/N=C/c1ccccc1OCC
inactive: [1] 102 % of control | [2] 107 % of control | [3] 93 % of control

S=c1[nH][nH]c(=S)s1
inactive: dose: 12.5 mg/kg/injection, schedule: Q01DX009 (ip), vehicle: Klucel (hydroxypropylcellulose) (HPC) 92 % of control | dose: 25.0 mg/kg/injection, schedule: Q01DX009 (ip), vehicle: Klucel (hydroxypropylcellulose) (HPC) 95 % of control | dose: 50.0 mg/kg/injection, schedule: Q01DX009 (ip), vehicle: Klucel (hydroxypropylcellulose) (HPC) 90 % of control | dose: 50.0 mg/kg/injection, schedule: Q01DX009 (ip), vehicle: saline 97 % of control | [4] 101 % of control | dose: 100.0 mg/kg/injection, schedule: Q01DX009 (ip), vehicle: saline 97 % of control

CSc1cc(=O)n2c3ccccc3c3ccnc1c32
inactive: dose: 5.0 mg/kg/injection, schedule: Q01DX001 (ip), vehicle: saline 98 % of control | dose: 10.0 mg/kg/injection, schedule: Q01DX001 (ip), vehicle: saline 98 % of control | dose: 20.0 mg/kg/injection, schedule: Q01DX001 (ip), vehicle: saline 100 % of control | dose: 40.0 mg/kg/injection, schedule: Q01DX001 (ip), vehicle: saline 98 % of control | dose: 80.0 mg/kg/injection, schedule: Q01DX001 (ip), vehicle: saline 100 % of control | [1] 120 % of control

Cc1nc(N2CCCCC2)[nH]c(=O)c1CN(C)N=O
inactive: dose: 50.0 mg/kg/injection, schedule: Q01DX009 (ip), vehicle: saline with Tween-80 94 % of control | dose: 100.0 mg/kg/injection, schedule: Q01DX009 (ip), vehicle: saline with Tween-80 94 % of control | dose: 200.0 mg/kg/injection, schedule: Q01DX009 (ip), vehicle: saline with Tween-80 102 % of control

Brc1c2ccccc2cc2ccccc12
inactive: dose: 100.0 mg/kg/injection, schedule: Q04DX002 (ip), vehicle: gum acacia 101 % of control | dose: 200.0 mg/kg/injection, schedule: Q04DX002 (ip), vehicle: gum acacia 93 % of control | dose: 400.0 mg/kg/injection, schedule: Q04DX002 (ip), vehicle: gum acacia 96 % of control

CC1(C)CC(O)CC(O)C1 (configuration not stated)
inactive: dose: 50.0 mg/kg/injection, schedule: Q01DX001 (ip), vehicle: carboxymethylcellulose (CMC) 104 % of control | dose: 50.0 mg/kg/injection, schedule: Q01DX001 (ip), vehicle: saline 98 % of control | dose: 100.0 mg/kg/injection, schedule: Q01DX001 (ip), vehicle: carboxymethylcellulose (CMC) 101 % of control | [1] 120 % of control | dose: 200.0 mg/kg/injection, schedule: Q01DX001 (ip), vehicle: carboxymethylcellulose (CMC) 106 % of control | [2] 104 % of control | dose: 400.0 mg/kg/injection, schedule: Q01DX001 (ip), vehicle: carboxymethylcellulose (CMC) 98 % of control | [3] 95 % of control

COc1ccc(C(=O)c2ccc(Br)s2)cc1
inactive: [4] 94 % of control | dose: 100.0 mg/kg/injection, schedule: Q04DX003 (ip), vehicle: Klucel (hydroxypropylcellulose) (HPC) 97 % of control | dose: 200.0 mg/kg/injection, schedule: Q01DX009 (ip), vehicle: Klucel (hydroxypropylcellulose) (HPC) 97 % of control | dose: 200.0 mg/kg/injection, schedule: Q04DX003 (ip), vehicle: Klucel (hydroxypropylcellulose) (HPC) 97 % of control | dose: 400.0 mg/kg/injection, schedule: Q01DX009 (ip), vehicle: Klucel (hydroxypropylcellulose) (HPC) 95 % of control | dose: 400.0 mg/kg/injection, schedule: Q04DX003 (ip), vehicle: Klucel (hydroxypropylcellulose) (HPC) 96 % of control

O=c1[nH]c(=O)[nH]c(=S)[nH]1
inactive: dose: 100.0 mg/kg/injection, schedule: Q01DX Z (ip), vehicle: methylcellulose (MC) 98 % of control | dose: 200.0 mg/kg/injection, schedule: Q01DX Z (ip), vehicle: methylcellulose (MC) 87 % of control

C=CCc1c(C)cc(C)c(C)c1O
inactive: dose: 50.0 mg/kg/injection, schedule: Q01DX009 (sc), vehicle: olive oil, sesame oil, peanut oil 105 % of control | dose: 50.0 mg/kg/injection, schedule: Q04DX003 (sc), vehicle: olive oil, sesame oil, peanut oil 113 % of control | dose: 100.0 mg/kg/injection, schedule: Q01DX009 (sc), vehicle: olive oil, sesame oil, peanut oil 105 % of control | dose: 100.0 mg/kg/injection, schedule: Q04DX003 (sc), vehicle: olive oil, sesame oil, peanut oil 106 % of control | dose: 200.0 mg/kg/injection, schedule: Q01DX009 (sc), vehicle: olive oil, sesame oil, peanut oil 104 % of control | dose: 200.0 mg/kg/injection, schedule: Q04DX003 (sc), vehicle: olive oil, sesame oil, peanut oil 101 % of control
